Assay results reported in US20260070945A1, “MACROCYCLIC IMMUNOMODULATORS” (Bristol-Myers Squibb Company, priority 2022, published 2026).
*1 amine or outer side, *2 acyl side, *3 side chain or, on linkers, in order; H or OH if unused. Where a SMILES comes first, the peptide text is derived from it. Bridges are numbered along the chain shown (N, C = ends). [ ]: non-standard residue; d: D form. The star is where a group is joined. Phe(3-CF3) = N[C@@H](Cc1cccc(C(F)(F)F)c1)C(=O)O; Phe(4-COOH) = N[C@@H](Cc1ccc(C(=O)O)cc1)C(=O)O; Bip = N[C@@H](Cc1ccc(-c2ccccc2)cc1)C(=O)O; γGlu = O=C(O)[C@H](CCC(=O)[*:2])N[*:1]; NH(CH2)12COOH = O=C(O)CCCCCCCCCCCCN*; Val(3-OH) = CC(C)(O)[C@H](N)C(=O)O; Cha = N[C@@H](CC1CCCCC1)C(=O)O; Cit = NC(=O)NCCC[C@H](N)C(=O)O; Carboxymethyl = O=C(O)C*; NMeA = CN[C@@H](C)C(=O)O; Dab = NCC[C@H](N)C(=O)O; AEEA = NCCOCCOCC(=O)O

target: T1, PD-1/PD-L1 interaction (PE-labeled human PD-L1-Ig binding to Jurkat cell line over-expressing human PD-1) (Homo sapiens, UniProt Q15116); assay: Jurkat-PD-1 Cell Binding High-Content Screening Assay (CBA); details: Jurkat-hPD-1 cells, PE-labeled PD-L1-Ig 20 nM final; read-out: Jurkat HPD1 PDL1 IC50
T1 construct: expressed in transfected cells; host or cells: Jurkat
T1 sequence (Q15116 25-288): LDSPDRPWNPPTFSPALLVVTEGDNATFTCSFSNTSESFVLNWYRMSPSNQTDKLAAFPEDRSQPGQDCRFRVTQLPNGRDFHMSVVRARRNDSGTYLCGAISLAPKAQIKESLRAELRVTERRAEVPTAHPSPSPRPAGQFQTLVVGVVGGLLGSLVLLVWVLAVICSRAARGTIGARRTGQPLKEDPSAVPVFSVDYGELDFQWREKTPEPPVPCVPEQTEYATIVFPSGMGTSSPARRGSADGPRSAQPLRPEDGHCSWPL
How it was run: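 Compound is added first to the PD-1-expressing Jurkat cells and held 2 h at 37 °C in serum-containing DMEM. The fluorescent PD-L1 fusion follows at 20 nM final for 1 h. Fixed, Hoechst-stained cells are then imaged for bound label.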

| IC50 [nM] | SMILES |
| --- | --- |
| 50.3 | CC(C)C[C@H]1NC(=O)[C@H](C)N(C)C(=O)[C@H](CCCNC(N)=O)NC(=O)[C@H](Cc2ccc(-c3ccccc3)cc2)NC(=O)[C@H](Cc2ccc(C(=O)O)cc2)NC(=O)[C@H](Cc2cccc(C(F)(F)F)c2)NC(=O)[C@H](CC(=O)O)NC(=O)[C@H](Cc2ccc(OCC(=O)O)cc2)NC(=O)[C@H](Cc2ccc(C(=O)O)cc2)NC(=O)CSC[C@@H](C(=O)N[C@@H](CCN)C(=O)NCCOCCOCC(=O)N[C@@H](CCC(=O)NCCOCCOCC(=O)NCCCCCCCCCCCCC(=O)O)C(=O)O)NC(=O)[C@H](CCC(=O)O)NC(=O)[C@H](C(C)C)NC(=O)[C@H](CC2CCCCC2)NC(=O)[C@H](CCN)NC1=O [Example 1158] ({CH2CO}-[Phe(4-COOH)]Y(Carboxymethyl)D[Phe(3-CF3)][Phe(4-COOH)][Bip][Cit][NMeA][dL][Dab][Cha]VEC[Dab][AEEA][γGlu][AEEA]-{NH(CH2)12COOH}; thioether N-14) |
| 46.4 | CC(=O)NCCCC[C@@H]1NC(=O)[C@H](C(C)(C)O)NC(=O)[C@H](CC2CCCCC2)NC(=O)[C@H](CCN)NC(=O)[C@@H](CC(C)C)NC(=O)[C@H](C)N(C)C(=O)[C@H](CCCNC(N)=O)NC(=O)[C@H](Cc2ccc(-c3ccccc3)cc2)NC(=O)[C@H](Cc2ccc(C(=O)O)cc2)NC(=O)[C@H](Cc2cccc(C(F)(F)F)c2)NC(=O)[C@H](CC(=O)O)NC(=O)[C@H](Cc2ccc(OCC(=O)O)cc2)NC(=O)[C@H](Cc2ccc(C(=O)O)cc2)NC(=O)CSC[C@@H](C(=O)N[C@@H](CCN)C(=O)NCCOCCOCC(=O)N[C@@H](CCC(=O)NCCOCCOCC(=O)NCCCCCCCCCCCCC(=O)O)C(=O)O)NC1=O [Example 1159] ({CH2CO}-[Phe(4-COOH)]Y(Carboxymethyl)D[Phe(3-CF3)][Phe(4-COOH)][Bip][Cit][NMeA][dL][Dab][Cha][Val(3-OH)]K(Ac)C[Dab][AEEA][γGlu][AEEA]-{NH(CH2)12COOH}; thioether N-14) |
| 101 | CC(C)C[C@H]1NC(=O)[C@H](C)N(C)C(=O)[C@H](Cc2ccc(C(=O)O)cc2)NC(=O)[C@H](Cc2ccc(-c3ccccc3)cc2)NC(=O)[C@H](Cc2ccc(C(=O)O)cc2)NC(=O)[C@H](Cc2cccc(C(F)(F)F)c2)NC(=O)[C@H](CC(=O)O)NC(=O)[C@H](Cc2ccc(OCC(=O)O)cc2)NC(=O)[C@H](Cc2ccc(C(=O)O)cc2)NC(=O)CSC[C@@H](C(=O)N[C@@H](CCN)C(=O)NCCOCCOCC(=O)N[C@@H](CCC(=O)NCCOCCOCC(=O)NCCCCCCCCCCCCC(=O)O)C(=O)O)NC(=O)[C@H](CCC(=O)O)NC(=O)[C@H](C(C)C)NC(=O)[C@H](CC2CCCCC2)NC(=O)[C@H](CCN)NC1=O [Example 1160] ({CH2CO}-[Phe(4-COOH)]Y(Carboxymethyl)D[Phe(3-CF3)][Phe(4-COOH)][Bip][Phe(4-COOH)][NMeA][dL][Dab][Cha]VEC[Dab][AEEA][γGlu][AEEA]-{NH(CH2)12COOH}; thioether N-14) |
| 81.4 | CC(C)C[C@H]1NC(=O)[C@H](C)N(C)C(=O)[C@H](Cc2ccc(C(=O)O)cc2)NC(=O)[C@H](Cc2ccc(-c3ccccc3)cc2)NC(=O)[C@H](Cc2ccc(C(=O)O)cc2)NC(=O)[C@H](Cc2cccc(C(F)(F)F)c2)NC(=O)[C@H](CC(=O)O)NC(=O)[C@H](Cc2ccc(OCC(=O)O)cc2)NC(=O)[C@H](Cc2ccc(C(=O)O)cc2)NC(=O)CSC[C@@H](C(=O)N[C@@H](CCN)C(=O)NCCOCCOCC(=O)N[C@@H](CCC(=O)NCCOCCOCC(=O)NCCCCCCCCCCCCC(=O)O)C(=O)O)NC(=O)[C@H](CO)NC(=O)[C@H](C(C)(C)O)NC(=O)[C@H](CC2CCCCC2)NC(=O)[C@H](CCN)NC1=O [Example 1161] ({CH2CO}-[Phe(4-COOH)]Y(Carboxymethyl)D[Phe(3-CF3)][Phe(4-COOH)][Bip][Phe(4-COOH)][NMeA][dL][Dab][Cha][Val(3-OH)]SC[Dab][AEEA][γGlu][AEEA]-{NH(CH2)12COOH}; thioether N-14) |
